Data as given in ChEMBL document CHEMBL5724914, “Linking interpersonal differences in gut microbiota composition and drug biotransformation activity” (2024).

Experiments:
[1] = The drug is tested on Z-022 corresponding to mouse gut metagenome with ENA study accession number: PRJEB37062 and ENA sample accession number: ERS12561821 for biotransformation under anaerobic condition. The drug concentrations were measured over 9 timepoints collected between 0 and 24 hours of incubation by liquid-chromatography-coupled mass spectrometry (LC–MS); conditions: 2 µM
[2] = human gut metagenome, 24 h, 2 µM
[3] = human gut metagenome, 24 h, 2 µM; remark: listed apart in the source
[4] = The drug is tested on Z-027 corresponding to metagenome with ENA study accession number: PRJEB37062 and ENA sample accession number: ERS12561826 for biotransformation under anaerobic condition. The drug concentrations were measured over 9 timepoints collected between 0 and 24 hours of incubation by liquid-chromatography-coupled mass spectrometry (LC–MS); conditions: 2 µM
[5] = The drug is tested on Z-020 corresponding to rabbit gut metagenome with ENA study accession number: PRJEB37062 and ENA sample accession number: ERS12561819 for biotransformation under anaerobic condition. The drug concentrations were measured over 9 timepoints collected between 0 and 24 hours of incubation by liquid-chromatography-coupled mass spectrometry (LC–MS); conditions: 2 µM
[6] = The drug is tested on Z-008 corresponding to metagenome with ENA study accession number: PRJEB37062 and ENA sample accession number: ERS12561808 for biotransformation under anaerobic condition. The drug concentrations were measured over 9 timepoints collected between 0 and 24 hours of incubation by liquid-chromatography-coupled mass spectrometry (LC–MS); conditions: 2 µM
[7] = human gut metagenome, 24 h, 2 µM; remark: listed apart in the source
[8] = The drug is tested on WLS-077 corresponding to human gut metagenome with ENA study accession number: PRJEB37062 and ENA sample accession number: ERS12561750 for biotransformation under anaerobic condition. The drug concentrations were measured over 9 timepoints collected between 0 and 24 hours of incubation by liquid-chromatography-coupled mass spectrometry (LC–MS); conditions: 2 µM
[9] = The drug is tested on WLS-027 corresponding to human gut metagenome with ENA study accession number: PRJEB37062 and ENA sample accession number: ERS12561744 for biotransformation under anaerobic condition. The drug concentrations were measured over 9 timepoints collected between 0 and 24 hours of incubation by liquid-chromatography-coupled mass spectrometry (LC–MS); conditions: 2 µM
[10] = The drug is tested on Z-001 corresponding to mouse gut metagenome with ENA study accession number: PRJEB37062 and ENA sample accession number: ERS12561801 for biotransformation under anaerobic condition. The drug concentrations were measured over 9 timepoints collected between 0 and 24 hours of incubation by liquid-chromatography-coupled mass spectrometry (LC–MS); conditions: 2 µM
[11] = human gut metagenome, 24 h, 2 µM; remark: listed apart in the source
[12] = human gut metagenome, 24 h, 2 µM; remark: listed apart in the source
[13] = The drug is tested on Z-030 corresponding to mouse gut metagenome with ENA study accession number: PRJEB37062 and ENA sample accession number: ERS12561829 for biotransformation under anaerobic condition. The drug concentrations were measured over 9 timepoints collected between 0 and 24 hours of incubation by liquid-chromatography-coupled mass spectrometry (LC–MS); conditions: 2 µM
[14] = human gut metagenome, 24 h, 2 µM; remark: listed apart in the source
[15] = human gut metagenome, 24 h, 2 µM; remark: listed apart in the source
[16] = The drug is tested on Z-012 corresponding to metagenome with ENA study accession number: PRJEB37062 and ENA sample accession number: ERS12561812 for biotransformation under anaerobic condition. The drug concentrations were measured over 9 timepoints collected between 0 and 24 hours of incubation by liquid-chromatography-coupled mass spectrometry (LC–MS); conditions: 2 µM
[17] = human gut metagenome, 24 h, 2 µM; remark: listed apart in the source
[18] = human gut metagenome, 24 h, 2 µM; remark: listed apart in the source
[19] = human gut metagenome, 24 h, 2 µM; remark: listed apart in the source
[20] = The drug is tested on Z-005 corresponding to metagenome with ENA study accession number: PRJEB37062 and ENA sample accession number: ERS12561805 for biotransformation under anaerobic condition. The drug concentrations were measured over 9 timepoints collected between 0 and 24 hours of incubation by liquid-chromatography-coupled mass spectrometry (LC–MS); conditions: 2 µM
Further: call rule not given here.

SMILES: COC(=O)C(c1ccccc1)C1CCCCN1 (stereo unspecified) [METHYLPHENIDATE]
- Bacterial Biotransformation [1]: Compound NOT metabolized
- Bacterial Biotransformation [2]: Compound NOT metabolized
- Bacterial Biotransformation [3]: Compound NOT metabolized
- Bacterial Biotransformation [4]: Compound NOT metabolized
- Bacterial Biotransformation [5]: Compound NOT metabolized
- Bacterial Biotransformation [6]: Compound NOT metabolized
- Bacterial Biotransformation [7]: Compound NOT metabolized
- Bacterial Biotransformation [8]: Compound NOT metabolized
- Bacterial Biotransformation [9]: Compound metabolized
- Bacterial Biotransformation [10]: Compound metabolized
- Bacterial Biotransformation [11]: Compound NOT metabolized
- Bacterial Biotransformation [12]: Compound NOT metabolized
- Bacterial Biotransformation [13]: Compound NOT metabolized
- Bacterial Biotransformation [14]: Compound metabolized
- Bacterial Biotransformation [15]: Compound NOT metabolized
- Bacterial Biotransformation [16]: Compound NOT metabolized
- Bacterial Biotransformation [17]: Compound NOT metabolized
- Bacterial Biotransformation [18]: Compound NOT metabolized
- Bacterial Biotransformation [19]: Compound metabolized
- Bacterial Biotransformation [20]: Compound NOT metabolized

SMILES: CC(=O)CCCCn1c(=O)c2c(ncn2C)n(C)c1=O [PENTOXIFYLLINE]
- Bacterial Biotransformation [1]: Compound NOT metabolized
- Bacterial Biotransformation [2]: Compound NOT metabolized
- Bacterial Biotransformation [3]: Compound NOT metabolized
- Bacterial Biotransformation [4]: Compound NOT metabolized
- Bacterial Biotransformation [5]: Compound NOT metabolized
- Bacterial Biotransformation [6]: Compound NOT metabolized
- Bacterial Biotransformation [7]: Compound NOT metabolized
- Bacterial Biotransformation [8]: Compound NOT metabolized
- Bacterial Biotransformation [9]: Compound NOT metabolized
- Bacterial Biotransformation [10]: Compound NOT metabolized
- Bacterial Biotransformation [11]: Compound NOT metabolized
- Bacterial Biotransformation [12]: Compound NOT metabolized
- Bacterial Biotransformation [13]: Compound NOT metabolized
- Bacterial Biotransformation [14]: Compound metabolized
- Bacterial Biotransformation [15]: Compound NOT metabolized
- Bacterial Biotransformation [16]: Compound NOT metabolized
- Bacterial Biotransformation [17]: Compound NOT metabolized
- Bacterial Biotransformation [18]: Compound NOT metabolized
- Bacterial Biotransformation [19]: Compound NOT metabolized
- Bacterial Biotransformation [20]: Compound NOT metabolized

SMILES: COC(=O)[C@H](c1ccccc1Cl)N1CCc2sccc2C1.O=S(=O)(O)O [CLOPIDOGREL BISULFATE]
- Bacterial Biotransformation [1]: Compound metabolized
- Bacterial Biotransformation [2]: Compound metabolized
- Bacterial Biotransformation [3]: Compound metabolized
- Bacterial Biotransformation [4]: Compound metabolized
- Bacterial Biotransformation [5]: Compound metabolized
- Bacterial Biotransformation [6]: Compound metabolized
- Bacterial Biotransformation [7]: Compound metabolized
- Bacterial Biotransformation [8]: Compound metabolized
- Bacterial Biotransformation [9]: Compound NOT metabolized
- Bacterial Biotransformation [10]: Compound metabolized
- Bacterial Biotransformation [11]: Compound metabolized
- Bacterial Biotransformation [12]: Compound metabolized
- Bacterial Biotransformation [13]: Compound NOT metabolized
- Bacterial Biotransformation [14]: Compound metabolized
- Bacterial Biotransformation [15]: Compound metabolized
- Bacterial Biotransformation [16]: Compound metabolized
- Bacterial Biotransformation [17]: Compound metabolized
- Bacterial Biotransformation [18]: Compound metabolized
- Bacterial Biotransformation [19]: Compound metabolized
- Bacterial Biotransformation [20]: Compound metabolized

SMILES: COC1=C(OC)C(=O)C(CCCCCCCCCCO)=C(C)C1=O [IDEBENONE]
- Bacterial Biotransformation [1]: Compound NOT metabolized
- Bacterial Biotransformation [2]: Compound NOT metabolized
- Bacterial Biotransformation [3]: Compound metabolized
- Bacterial Biotransformation [4]: Compound NOT metabolized
- Bacterial Biotransformation [5]: Compound metabolized
- Bacterial Biotransformation [7]: Compound metabolized
- Bacterial Biotransformation [8]: Compound metabolized
- Bacterial Biotransformation [9]: Compound metabolized
- Bacterial Biotransformation [10]: Compound NOT metabolized
- Bacterial Biotransformation [11]: Compound metabolized
- Bacterial Biotransformation [13]: Compound NOT metabolized
- Bacterial Biotransformation [14]: Compound metabolized
- Bacterial Biotransformation [16]: Compound metabolized
- Bacterial Biotransformation [17]: Compound metabolized
- Bacterial Biotransformation [18]: Compound NOT metabolized
- Bacterial Biotransformation [20]: Compound metabolized

SMILES: CC(=O)OCC(=O)NCCCOc1cccc(CN2CCCCC2)c1 [ROXATIDINE ACETATE]
- Bacterial Biotransformation [1]: Compound metabolized
- Bacterial Biotransformation [2]: Compound metabolized
- Bacterial Biotransformation [3]: Compound metabolized
- Bacterial Biotransformation [4]: Compound metabolized
- Bacterial Biotransformation [5]: Compound metabolized
- Bacterial Biotransformation [6]: Compound metabolized
- Bacterial Biotransformation [7]: Compound metabolized
- Bacterial Biotransformation [8]: Compound metabolized
- Bacterial Biotransformation [10]: Compound metabolized
- Bacterial Biotransformation [11]: Compound metabolized
- Bacterial Biotransformation [12]: Compound metabolized
- Bacterial Biotransformation [13]: Compound NOT metabolized
- Bacterial Biotransformation [14]: Compound NOT metabolized
- Bacterial Biotransformation [15]: Compound metabolized
- Bacterial Biotransformation [16]: Compound metabolized
- Bacterial Biotransformation [17]: Compound metabolized
- Bacterial Biotransformation [18]: Compound metabolized
- Bacterial Biotransformation [19]: Compound metabolized
- Bacterial Biotransformation [20]: Compound metabolized

SMILES: CN1C[C@H](C(=O)N[C@]2(C)O[C@@]3(O)[C@@H]4CCCN4C(=O)[C@H](Cc4ccccc4)N3C2=O)C[C@@H]2c3cccc4[nH]cc(c34)C[C@H]21.CS(=O)(=O)O [DIHYDROERGOTAMINE MESYLATE]
- Bacterial Biotransformation [1]: Compound metabolized
- Bacterial Biotransformation [4]: Compound NOT metabolized
- Bacterial Biotransformation [5]: Compound NOT metabolized
- Bacterial Biotransformation [6]: Compound NOT metabolized
- Bacterial Biotransformation [10]: Compound NOT metabolized
- Bacterial Biotransformation [13]: Compound NOT metabolized
- Bacterial Biotransformation [16]: Compound NOT metabolized
- Bacterial Biotransformation [20]: Compound NOT metabolized

SMILES: Cc1ccc(NC(=O)c2ccc(CN3CCN(C)CC3)cc2)cc1Nc1nccc(-c2cccnc2)n1 [IMATINIB]
- Bacterial Biotransformation [1]: Compound NOT metabolized
- Bacterial Biotransformation [4]: Compound NOT metabolized
- Bacterial Biotransformation [5]: Compound NOT metabolized
- Bacterial Biotransformation [6]: Compound NOT metabolized
- Bacterial Biotransformation [10]: Compound NOT metabolized
- Bacterial Biotransformation [13]: Compound NOT metabolized
- Bacterial Biotransformation [16]: Compound NOT metabolized
- Bacterial Biotransformation [20]: Compound NOT metabolized
